Drawing on PubChem BioAssay (NCI), this text covers TGI and GI50 for 14 molecules.

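Dose response: 5 concentrations. Exposure: 48 h. Format: 96-well plates. Endpoint: linear interpolation; highest concentration if not reached. Here, GI50 denotes the concentration required for 50% inhibition of growth. TGI is the concentration that stops growth completely.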

What all share (assay): inhibition of tumour cell growth, NCI panel, 48 h
Assay [1] deals with A498 renal.
Assay [2] concerns HOP-62 NSCLC.
The subject of assay [3] is CAKI-1 renal.
Assay [4] deals with M14 melanoma.
Assay [5] deals with PC-3 prostate.
Assay [6] relates to A549 NSCLC.
Assay [7] has as its system HL-60(TB) leukemia.
In assay [8] the test system is NCI-H460 lung.
Assay [9] deals with SF-268 CNS.
Assay [10] concerns MALME-3M melanoma.

As to `CC(C(=O)N1C(=O)N(C(=O)[C@H](C)C(O)c2ccccc2)[C@H](c2ccccc2)[C@H]1c1ccccc1)[C@@H](O)c1ccccc1` (some centres undefined), the TGI was more than 100 µM in [1]; more than 100 µM in assay [2]; 72.4 µM in assay [3]; 61.7 µM in assay [4]; 83.6 µM in assay [5]; more than 100 µM in assay [6]. Also, the TGI in assay [7] was more than 100 µM; in assay [8], 78.1 µM; in [9], more than 100 µM.

Consider `COc1cc(C2C(C(=O)OCc3ccccc3)=C(C)NC(C)=C2C(=O)OCc2ccccc2)cc(OC)c1OC`, for which the GI50 in [1] is 1.75 µM; in assay [2], 12.1 µM; in [3] it was 3.05 µM; in [5] it was 1.48 µM; in [6], 3.6 µM; in [8], 3.54 µM. Also, the GI50 in [9] was 5.17 µM. Besides, the TGI in assay [1] was more than 100 µM; in assay [2] it was 66.5 µM; in assay [3], more than 100 µM; in assay [5], more than 100 µM; in assay [6] it was more than 100 µM; in assay [8], more than 100 µM. Also, the TGI in [9] is more than 100 µM.

Turning to `CCCN(CCC)c1ccc(/C=N/NC(=O)c2cccnc2)cc1`, the GI50 in assay [1] is 10.2 µM; in assay [2], 37.9 µM; in assay [3], 30.1 µM; in assay [10], 41.8 µM; in assay [5], 29.5 µM; in assay [6] it was 27.5 µM. Also, the GI50 is 22.6 µM in assay [7], 30.3 µM in assay [8] and 31.2 µM in assay [9]. Moreover, the TGI in assay [1] is 22.3 µM; in assay [2] it was more than 100 µM; in assay [3], more than 100 µM; in assay [10], more than 100 µM; in assay [5], more than 100 µM; in [6], more than 100 µM. The TGI was 63.7 µM in assay [7], more than 100 µM in assay [8] and more than 100 µM in assay [9].

Turning to `CCCC(=O)Nc1ncnc2c1ncn2C1OC2COP(=O)(O)OC2C1OC(=O)CCC` (centres undefined), the TGI in assay [1] is 92.8 µM; in assay [2] it was more than 1000 µM; in [3], more than 1000 µM; in assay [4], more than 1000 µM; in assay [10], more than 1000 µM; in assay [5], more than 1000 µM. Also, the TGI in [6], in assay [7] and in assay [9] was more than 1000 µM each time. In addition, the GI50 in [2], in assay [3], in assay [4], in [10], in assay [5] and in [6] was more than 1000 µM in each case. Besides, the GI50 in assay [9] was more than 1000 µM.

Take `Cc1[nH]c2ccccc2c1C1=CC(=O)C=CC1=O`: the GI50 is 14.5 µM in [1]; 5.66 µM in [3]; 13.6 µM in assay [4]; 7.45 µM in assay [10]; 12.7 µM in assay [5]; 21 µM in assay [6]. For the same molecule, the GI50 in [8] was 15.5 µM; in assay [9], 13.1 µM. In addition, the TGI amounted to 40 µM in assay [1]; 22.6 µM in assay [3]; 27.7 µM in assay [4]; 27.8 µM in assay [10]; 30 µM in assay [5]; 63.9 µM in assay [6]. Besides, the values for the TGI in assay [8] and in [9] were 42.2 µM and 27.4 µM, respectively.

For the molecule `CC(=O)Nc1ccc(S(=O)(=O)c2ccc(NC(C)=O)cc2)cc1`, the GI50 in assay [1] was 81.4 µM; in assay [2], more than 100 µM; in assay [3] it was more than 100 µM; in assay [4] it was more than 100 µM; in assay [10], 34.5 µM; in assay [5] it was more than 100 µM. For the same molecule, the GI50 in assay [6], in assay [7] and in [8] was more than 100 µM throughout. For the same molecule, the TGI in [1], in assay [2], in assay [3], in assay [4], in [10] and in assay [5] was more than 100 µM in each case. For the same molecule, the TGI in [6], in assay [7] and in assay [8] was more than 100 µM in each case.

For `CS(=O)(=O)N(CC(=O)O)Cc1ccccc1`, the TGI in assay [1], in assay [2], in assay [3], in [4], in assay [10] and in [5] was more than 100 µM each time. Also, the TGI in assay [6], in assay [8] and in assay [9] was more than 100 µM in each case.

On to `CNc1ccc(C(=O)CC(O)CCC(C)C2OC(=O)CC(O)CC(=O)CC(O)CC(O)CC(O)CC(O)CC3(O)CC(O)C(C(=O)NCCc4ccccn4)C(CC(OC4OC(C)C(O)C(N)C4O)/C=C/C=C/C=C/C=C\C=C/C=C/C=C/C2C)O3)cc1` (centres undefined), for which the GI50 was 0.136 µM in assay [1]; 0.165 µM in [3]; 0.165 µM in assay [4]; 0.0398 µM in assay [10]; 0.336 µM in assay [5]; 5.01 µM in assay [7]. Further, the GI50 was 0.238 µM in assay [8] and 0.141 µM in assay [9]. Besides, the TGI was 0.464 µM in [1]; 0.633 µM in assay [3]; 0.144 µM in [10]; more than 11.6 µM in assay [5]; 30.2 µM in assay [7]; more than 17.8 µM in assay [8]. In addition, in assay [9], the TGI came to 0.439 µM.

Take `CN1CCN(CCCOc2ccc3nc(Nc4ccc(C(F)(F)F)c(Cl)c4)ccc3c2)CC1`: the GI50 was 0.932 µM in [1]; 1.63 µM in assay [2]; 1.72 µM in [3]; 1.71 µM in [4]; 1.68 µM in assay [5]; 1.92 µM in assay [6]. Moreover, the values for the GI50 in assay [7], in assay [8] and in assay [9] were 1.94 µM, 1.88 µM and 1.66 µM, respectively. In addition, the TGI in assay [1] came to 2.54 µM; in [2], 3.18 µM; in [3], 3.82 µM; in [4] it was 3.32 µM; in [5], 3.56 µM; in assay [6] it was 3.48 µM. Further, the results for the TGI in assay [7], in assay [8] and in [9] were 4.01 µM, 4.14 µM and 3.43 µM, respectively.

On to `Cc1csc(-c2ccc3c(c2)COC3(CCCN(C)C)c2ccc(F)cc2)c1` (centres undefined), for which the GI50 in [2] was 1.67 µM; in assay [3] it was 1.62 µM; in assay [4], 1.81 µM; in [10], 1.74 µM; in [5] it was 1.81 µM; in assay [6], 2.02 µM. Besides, the GI50 in [7] was 1.97 µM; in assay [8], 1.9 µM; in assay [9] it was 1.68 µM. For the same molecule, the TGI in [2] came out at 3.42 µM; in assay [3] it was 3.01 µM; in assay [4], 3.59 µM; in assay [10], 3.34 µM; in assay [5] it was 3.45 µM; in assay [6], 4.24 µM. Further, the TGI was found to be 4.27 µM in [7], 3.5 µM in [8] and 3.26 µM in assay [9].

Take `CCc1cccc(CC)c1NC(=O)c1ccn2c1CCc1cnc(Nc3ccc(N4CCN(C)CC4)cc3OC)nc1-2`: the GI50 in assay [1] is 10.9 µM; in assay [4], 1.59 µM; in [10], 1.87 µM; in assay [5] it was 2.5 µM; in assay [6] it was 2.17 µM; in [8], 0.0814 µM. The GI50 in assay [9] is 3.14 µM. Also, the TGI in assay [1] was determined as 23.5 µM; in assay [4] it was 3.62 µM; in assay [10], 3.8 µM; in assay [5], 16.2 µM; in assay [6], 42 µM; in [8] it was 10.7 µM. Further, the TGI in [9] was 17.8 µM.

Take `N=C(N)c1ccc(-c2ccc(-c3ccc(Cl)c(Cl)c3)o2)nc1`: the GI50 in assay [1] is 9.98 µM; in [3], 1.47 µM; in assay [10], 1.78 µM; in assay [5], 1.72 µM; in [7], 2.24 µM; in [9], 2.08 µM. The TGI was 28.5 µM in [1]; 2.85 µM in assay [3]; 3.42 µM in [10]; 3.29 µM in assay [5]; 5.09 µM in [7]; 4.73 µM in assay [9].

Regarding `[O]=[W](=[O])([OH])[OH]`, the GI50 in [1], in assay [3], in [4], in assay [10], in [5] and in assay [6] was more than 100 µM in each case. Moreover, the GI50 in [7], in assay [8] and in assay [9] was more than 100 µM throughout. The TGI in assay [1], in assay [3], in assay [4], in assay [10], in assay [5] and in [6] was more than 100 µM throughout. Also, the TGI in [7], in [8] and in [9] was more than 100 µM each time.

As for `O=C(O)C1CCCCC1C(=O)Nc1nc2ccccc2[nH]1` (centres undefined), the TGI in [1], in assay [2], in [3], in assay [4], in [10] and in assay [5] was more than 100 µM in each case. For the same molecule, the TGI in assay [6], in assay [8] and in assay [9] was more than 100 µM throughout.
